Measured values: patent publication US20060223050A1, “Therapeutic platelets and methods” (The Regents of the University of California Office of …, priority 2003, published 2006)
Several values for one entry are separate records, joined by “and”; a condition that tells them apart may be missing. Equal entries are not always repeated.

Legend:
[1] = test system: erythrocyte membranes; test: FTIR membrane phase transitions of erythrocytes
[2] = test system: human platelets; test: Loading of platelets with trehalose (anthrone quantification); type: cell-based; settings: 37° C., from 0 to 2 hours
Protocol: Washing of Platelets. Platelet concentrations were obtained from the Sacramento blood center or from volunteers in our laboratory. Platelet rich plasma was centrifuged for 8 minutes at 320×g to remove erythrocytes and leukocytes. The supernatant was pelleted and washed two times (480×g for 22 minutes, 480×g for 15 minutes) in buffer A (100 MM NaCl, 10 MM KCl, 10 mM EGTA, 10 mM imidazole, pH 6.8). Platelet counts were obtained on a Coulter counter T890 (Coulter, Inc., Miami, Fla.).
Loading of Platelets with Trehalose. Washed platelets in a concentration of 1-2 10^9 platelets/ml were incubated at various temperatures in the presence of 1-20 mg/ml trehalose. […] The amount of trehalose in the platelets was quantified using the anthrone reaction (Umbreit et al., Mamometric and Biochemical Techniques, 5th Edition, 1972). […] Then the samples were cooled on ice and the absorbance was measured at 620 nm on a Perkin Elmer spectrophotometer. The amount of platelet associated trehalose was determined using a standard curve of trehalose.
Quantification of Trehalose and LYCH Concentration. Uptake was calculated for each sample as micrograms of trehalose or LYCH per platelet. The internal trehalose concentration was calculated assuming a platelet radius of 1.2 μm and by assuming that 50% of the platelet volume is taken up by the cytosol (rest is membranes). […]

[3] = test system: human platelets; test: Stability of platelets during trehalose incubation (microscopy, flow cytometric analysis); type: cell-based
Protocol: The uptake of trehalose is linear in the range from 0 to 30 mM external trehalose. The highest internal trehalose concentration is obtained with 50 mM external trehalose. At higher concentrations than 50 mM the internal trehalose concentration decreases again. Even when the loading buffer at these high trehalose concentrations is corrected for isotonicity by adjusting the salt concentration, the loading efficiency remains low. Platelets become swollen after 4 hours incubation in 75 mM trehalose.
The stability of the platelets during a 4 hours incubation period was studied using microscopy and flow cytometric analysis. […] No signs of microvesicle formation could be observed after 4 hours incubation, as can be judged by the stable relative proportion of microvesicle gated cells (less than 3%). The formation of microvesicles is usually considered as the first sign of platelet activation (Owners et al., Trans. Med. Rev., 8, 27-44, 1994). Characteristic antigens of platelet activation include: glycoprotein 53 (gp53, a lysosomal membrane marker), PECAM-1 (platelet endothelial cell adhesion molecule-1, an alpha granule constituent), and P-selection (an alpha granule membrane protein).

[4] = State diagram (glass transition temperature vs water content) by differential scanning calorimeter; type: physicochemical; settings: FIG. 40, assuming sample temperature of −50° C.
Excerpt: In another embodiment of the invention, it has been discovered that protein alters the physical properties of a preservative solution. More specifically, it has been discovered that the protein albumin alters the physical properties of the oligosaccharide trehalose solution as broadly illustrated in FIG. 40, which are graphs representing state diagrams (e.g., glass transition temperature vs. water content) for trehalose:water mixtures and for trehalose-albumin(1/1, wt/wt):water mixtures. A state diagram is a measure of the glass transition temperatures (Tg) for the respective mixtures (i.e., the various preservative:water mixtures and the various preservative-protein:water mixtures). The state diagrams broadly illustrated in FIG. 40 were obtained by respectively freeze-drying trehalose alone and freeze-drying a 1:1 (wt:wt) trehalose:albumin solution, and then adding back known amounts of water to the respective freeze-dried solutions. The glass transition temperatures for the trehalose:water solution and for the trehalose/albumin:solution were measured by a differential scanning calorimeter with conventional methods.

[5] = test system: mesenchymal stem cells; test: Growth curves of mesenchymal stem cells with 90 mM trehalose; type: cell-based, human
Protocol: Growth Curves. MSCs were plated into 12-welled plates at approximately the same seeding density used for T-185 flasks in standard Osiris protocols (5900 cells/cm^2 with fluid volume of 0.189 mL/cm^2). Three wells for each condition at each time point were trypsinized and counted. Data for cells grown in the presence of trehalose were lost for the first two time points. FIG. 13 is a graph illustrating growth curves for the mesenchymal stem cells in the presence or absence of 90 mM trehalose with the open triangle data representing cells grown in standard medium for 24 hours, after which 90 mM trehalose was added.

[6] = erythrocytes incubated 37° C. one hour with MβCD

Compound: CC(C)c1c(C(=O)Nc2ccccc2)c(-c2ccccc2)c(-c2ccc(F)cc2)n1CC[C@@H](O)C[C@@H](O)CC(=O)O [LIPITOR]
- total wavenumber excursion ([1]; from −5 to 45° C., erythrocytes of a donor who used LIPITOR (other donors 0.8)): ~1.5 cm⁻¹

Compound: methyl-β-cyclodextrin [MβCD]
- High Transition, Cooperativity [1, 6]: 0.091 ± 0.020 cm^−1/° C.
- High Transition, Transition Temperature [1, 6]: 35.4 ± 1.5 °C
- Low Transition, Cooperativity [1, 6]: 0.051 ± 0.004 cm^−1/° C.
- Low Transition, Transition Temperature [1, 6]: 15.3 ± 0.8 °C
- Middle Transition, Cooperativity [1, 6]: 0.095 ± 0.015 cm^−1/° C.
- Middle Transition, Transition Temperature [1, 6]: 25 °C and 26.0 ± 0.8 °C
- wavenumber excursion of lipid CH2 band ([1]; from −5 to 45° C., after cholesterol removal (control 0.7)): 2.9 cm⁻¹

Compound: OC[C@H]1O[C@H](O[C@H]2O[C@H](CO)[C@@H](O)[C@H](O)[C@H]2O)[C@H](O)[C@@H](O)[C@@H]1O [trehalose]
- trehalose uptake [2]: 2.8×10^−11 mol/m^2s
- morphological changes ([3]; 4 hours at 37° C., 25 mM external trehalose): No morphological changes
- platelet morphology ([3]; 4 hours incubation at 37° C. in 75 mM trehalose): swollen
- relative proportion of microvesicle gated cells ([3]; 4 hours incubation, flow cytometry): less than 3%
- water content at which sample enters the glassy state [4]: below 0.15 gram H2O/gram dry wt
- effect on growth of the cells ([5]; after the third day): cell count started to drop significantly
- effect on growth of the cells ([5]; up to the third day): did not interfere with growth of the cells
